For data set [1], the system named is NCI/ADR-RES. Description: Reversal of P-glycoprotein-mediated multidrug resistance in human MCF7/ADR cells assessed as sensitization to actinomycin D after 48 hrs by SRB assay. The class given is cell-based. On the technique in general: In SRB staining, fixed cells bind dye roughly in proportion to their protein.
Data set [2] has as its target ATP-dependent translocase ABCB1 (Homo sapiens, UniProt P08183). The data set can be described thus: Inhibition of P-glycoprotein in human MCF7/ADR cells assessed as increase in [3H]vinblastine accumulation. The class given is cell-based. As to conditions: nci/adr-res.
Data set [3] relates to NCI/ADR-RES. The data set can be described thus: Cytotoxicity against human MCF7/ADR cells for 60 mins by trypan blue staining. The class given is functional, cell-based.

Calls of active or inactive are those of the source. The rule behind the calls is not given here.

ATP-dependent translocase ABCB1, sequence (P08183 whole entry): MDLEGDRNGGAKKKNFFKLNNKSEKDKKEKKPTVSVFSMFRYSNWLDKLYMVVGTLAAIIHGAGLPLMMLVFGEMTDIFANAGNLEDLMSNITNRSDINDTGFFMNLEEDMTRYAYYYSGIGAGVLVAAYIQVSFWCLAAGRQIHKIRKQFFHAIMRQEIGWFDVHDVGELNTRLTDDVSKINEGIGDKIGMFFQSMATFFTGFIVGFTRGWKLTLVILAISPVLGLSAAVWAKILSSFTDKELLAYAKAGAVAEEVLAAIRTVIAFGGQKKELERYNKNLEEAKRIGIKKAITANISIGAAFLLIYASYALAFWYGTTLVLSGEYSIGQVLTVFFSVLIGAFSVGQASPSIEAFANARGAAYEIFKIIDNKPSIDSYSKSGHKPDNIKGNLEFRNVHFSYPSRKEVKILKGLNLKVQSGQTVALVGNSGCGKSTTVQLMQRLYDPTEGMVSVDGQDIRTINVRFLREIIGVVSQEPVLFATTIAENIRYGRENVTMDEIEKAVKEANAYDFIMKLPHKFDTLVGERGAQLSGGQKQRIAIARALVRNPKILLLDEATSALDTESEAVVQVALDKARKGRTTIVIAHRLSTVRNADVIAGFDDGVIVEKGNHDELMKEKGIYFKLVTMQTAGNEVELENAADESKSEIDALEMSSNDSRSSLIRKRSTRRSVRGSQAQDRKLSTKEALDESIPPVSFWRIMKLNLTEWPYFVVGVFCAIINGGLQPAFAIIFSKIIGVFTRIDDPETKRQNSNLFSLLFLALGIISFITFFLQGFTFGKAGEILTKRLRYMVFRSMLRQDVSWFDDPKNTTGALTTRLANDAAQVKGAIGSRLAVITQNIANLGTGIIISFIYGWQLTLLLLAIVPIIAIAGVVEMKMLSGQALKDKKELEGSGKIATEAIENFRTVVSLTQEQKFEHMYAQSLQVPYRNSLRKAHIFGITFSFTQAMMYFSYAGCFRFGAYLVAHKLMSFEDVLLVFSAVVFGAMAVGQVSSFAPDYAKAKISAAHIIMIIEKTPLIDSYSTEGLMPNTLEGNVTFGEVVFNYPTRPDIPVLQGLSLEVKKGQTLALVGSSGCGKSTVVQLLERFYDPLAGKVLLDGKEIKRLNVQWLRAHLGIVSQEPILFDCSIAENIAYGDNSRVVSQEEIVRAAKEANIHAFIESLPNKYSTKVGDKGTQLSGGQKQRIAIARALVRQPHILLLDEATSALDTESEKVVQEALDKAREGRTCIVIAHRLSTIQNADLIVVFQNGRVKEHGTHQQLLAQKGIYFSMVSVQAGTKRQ

As for `CC(=O)O[C@@H]1C[C@@H](O)[C@@H](C)OC1[C@]1(C)C(=O)c2cc3cc(C)c(cc4nc(cc5[nH]c(cc1n2)cc5C)C(=O)[C@@]4(C)C1O[C@H](C)[C@H](O)C[C@H]1OC(C)=O)[nH]3` (stereo partly specified) [TOLYPORPHIN A], the outcome in data set [1] was Active. For the same molecule, in data set [2], the Activity result is recorded as “Dose-dependent effect”. The result in data set [3] was inactive.
For `Cc1cc2cc3nc(cc4cc(C)c(cc5nc(cc1[nH]2)C(=O)C5(C)O)[nH]4)C(=O)C3(C)O` (stereo unspecified) [TOLYPORPHIN J] the same measures were “Active”, “Dose-dependent effect” and “inactive”.
